pIC50: −log10 of the molar value. Structures can show the parent of a compound that is named as a salt.
Columns and labels:
NMDA receptors = experiment: [3H]CPP NMDA receptor binding assay; conditions: for pIC50: [3H]CPP displacement; for % Inhibition (10^-4 M): at 10^-4 M
Method: (§1) Thus, the compounds of Formula I were tested in vitro for their ability to block NMDA receptors in a binding assay with [^3 H]3-(2-carboxypiperazin-4-yl)propyl-1-phosphonic acid ([^3 H]CPP) carried out essentially by a method previously described by Murphy, D. E., et al, Journal of Pharmacology and Experimental Therapeutics, Volume 240, pp 778-784 (1987); and for their ability to inhibit glutamate-induced [Ca^++ ] influx (GCI) carried out essentially by a method previously described by Marcoux, F. W., et al, "Sigma and Phencyclidine like Compounds as Molecular Probes in Biology", pp 735-746, Domino, E. F. and J. N. Kamenka, eds., NPP Books, Ann Arbor, Michigan, 1988 and Choi, D. W., et al, Journal of Neuroscience, Volume 8, pp 185-196 (1988). The aforementioned lest methods are incorporated herein by reference.

[1] = test system: glutamate-induced [Ca^++ ] influx; experiment: Inhibition of glutamate-induced [Ca++] influx (GCI); type: cell-based
Method: as §1

SMILES | pIC50 (NMDA receptors) | pIC50 [1] | % Inhibition (10^-4 M) (NMDA receptors) [%]
O=C(O)CNCc1ccc(CP(=O)(O)O)cc1 [Example 8h, N-[[4-(Phosphonomethyl)phenyl]methyl]glycine, monohydrochloride] | 5.28 | 3.92 | –
O=C(O)CNCCC=CP(=O)(O)O (mixture of isomers) [Example 10a, N-[4-Phosphono-3-butenyl)glycine, diammonium salt. (Mixture of E and Z isomers)] | 5.61 | – | –
O=C(O)CNCc1cccc(CP(=O)(O)O)c1 [Example 8d, N-[[3-(Phosphonomethyl)phenyl]methyl]glycine, hydrochloride] | 5.65 | 4.10 | –
O=C(O)CNCC=CCP(=O)(O)O [Example 8o, N-(4-Phosphono-2-butenyl)glycine, monohydrochloride] | 5.92 | 4.74 | –
CC(NCC=CCP(=O)(O)O)C(=O)O.Cl (racemic) [Example 8p, N-(4-Phosphono-2-butenyl)-DL-alanine, monohydrochloride] | – | – | 58
O=C(O)CNCCc1cccc(CP(=O)(O)O)c1 [Example 8g, N-[2-[3-(Phosphonomethyl)phenyl]ethyl] glycine, monohydrochloride] | – | – | 86

Reference: patent US5179085A, “N-substituted α-amino acids and derivatives thereof having pharmaceutical activity” (Warner-Lambert Company, priority 1991, dated 1993)
